Source: patent US11820766B2, “Monoacylglycerol lipase modulators” (Janssen Pharmaceutica NV, priority 2018, dated 2023)

Molecular target: T1, human MGL from HeLa cells (Homo sapiens, UniProt Q99685)
T1 construct: combining endogenously expressed MGL from HeLa cells with test compounds; endogenous in cells; host or cells: HeLa cells / cell homogenates
T1 sequence (Q99685 1-303): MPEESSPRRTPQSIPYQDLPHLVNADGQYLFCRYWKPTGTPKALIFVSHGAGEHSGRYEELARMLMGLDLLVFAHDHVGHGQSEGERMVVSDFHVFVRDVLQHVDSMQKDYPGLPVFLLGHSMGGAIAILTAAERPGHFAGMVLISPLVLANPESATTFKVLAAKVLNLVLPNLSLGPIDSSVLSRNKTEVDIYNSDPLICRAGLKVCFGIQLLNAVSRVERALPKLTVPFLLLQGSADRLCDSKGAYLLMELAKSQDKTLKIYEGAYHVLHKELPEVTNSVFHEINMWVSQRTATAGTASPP
Experiment: In vitro MGL activity assay: [glycerol-1,3-3H]-oleyl glycerol cleavage by MGL from HeLa cells
Format: biochemical
Conditions: 300 nM [Glycerol-1,3-3H]-oleyl glycerol, one hour
Source text: MGL is the predominant hydrolase in HeLa cells/cell homogenates.

| IC50 [µM] | SMILES |
| --- | --- |
| 0.0299 | COc1nccc(C(=O)N2CCc3c(nn(C)c3-c3ccc(F)c(C)c3)[C@@H]2C)c1C [Example 598, [(7S)-3-(4-Fluoro-3-methyl-phenyl)-2,7-dimethyl-5,7-dihydro-4H-pyrazolo[3,4-c]pyridin-6-yl]-(2-methoxy-3-methyl-4-pyridyl)methanone] |
| 0.122 | C[C@H]1c2nn(C)c(-c3cc(F)c(F)c(F)c3)c2CCN1C(=O)c1cnn2c1CCC2 [Example 551, 5,6-Dihydro-4H-pyrrolo[1,2-b]pyrazol-3-yl-[(7S)-2,7-dimethyl-3-(3,4,5-trifluorophenyl)-5,7-dihydro-4H-pyrazolo[3,4-c]pyridin-6-yl]methanone] |
| 0.021 | C[C@H]1c2nn(C)c(-c3cc(F)c(F)c(F)c3)c2CCN1C(=O)c1c[nH]c2ncc(F)cc12 [Example 374, [(7S)-2,7-Dimethyl-3-(3,4,5-trifluorophenyl)-5,7-dihydro-4H-pyrazolo[3,4-c]pyridin-6-yl]-(5-fluoro-1H-pyrrolo[2,3-b]pyridin-3-yl)methanone] |
| 0.13 | COc1ncc(-c2c3c(nn2C)[C@H](C)N(C(=O)c2ccc4ncccc4c2)CC3)cc1C(F)(F)F [Example 530, [(7S)-3-[6-Methoxy-5-(trifluoromethyl)-3-pyridyl]-2,7-dimethyl-5,7-dihydro-4H-pyrazolo[3,4-c]pyridin-6-yl]-(6-quinolyl)methanone] |
| 0.0213 | Cc1nc2ccc(F)cn2c1C(=O)N1CCc2c(nn(C)c2-c2cc(F)c(F)c(F)c2)[C@@H]1C [Example 407, [(7S)-2,7-Dimethyl-3-(3,4,5-trifluorophenyl)-5,7-dihydro-4H-pyrazolo[3,4-c]pyridin-6-yl]-(6-fluoro-2-methyl-imidazo[1,2-a]pyridin-3-yl)methanone] |
| 0.276 | C[C@H]1c2nn(C)c(-c3cc(F)c(F)c(F)c3)c2CCN1C(=O)c1ccc2nccn2n1 [Example 452, [(7S)-2,7-Dimethyl-3-(3,4,5-trifluorophenyl)-5,7-dihydro-4H-pyrazolo[3,4-c]pyridin-6-yl]-imidazo[1,2-b]pyridazin-6-yl-methanone] |
| 1.01 | Cc1cnc2c(C(=O)N3CCc4c(nn(C)c4-c4cc(F)c(F)c(F)c4)[C@@H]3C)ncn2c1 [Example 461, [(7S)-2,7-Dimethyl-3-(3,4,5-trifluorophenyl)-5,7-dihydro-4H-pyrazolo[3,4-c]pyridin-6-yl]-(3-methylimidazo[1,5-a]pyrimidin-8-yl)methanone] |

The remaining lines, values behind:

| SMILES | IC50 [µM] |
| --- | --- |
| C[C@H]1c2nn(C)c(-c3cc(F)c(F)c(F)c3)c2CCN1C(=O)c1cnc2c(c1)OCCN2 [Example 571, 3,4-Dihydro-2H-pyrido[3,2-b][1,4]oxazin-7-yl-[(7S)-2,7-dimethyl-3-(3,4,5-trifluorophenyl)-5,7-dihydro-4H-pyrazolo[3,4-c]pyridin-6-yl]methanone] | 0.0127 |
| COc1ccc(-c2c3c(nn2C)[C@H](C)N(C(=O)c2ccc4ncccc4c2)CC3)cc1C [Example 512, [(7S)-3-(4-Methoxy-3-methyl-phenyl)-2,7-dimethyl-5,7-dihydro-4H-pyrazolo[3,4-c]pyridin-6-yl]-(6-quinolyl)methanone] | 0.185 |
| C[C@H]1c2nn(C)c(-c3ccccc3C(F)(F)F)c2CCN1C(=O)c1ccc2ncccc2c1 [Example 493, [(7S)-2,7-Dimethyl-3-[2-(trifluoromethyl)phenyl]-5,7-dihydro-4H-pyrazolo[3,4-c]pyridin-6-yl]-(6-quinolyl)methanone] | 2.36 |
| COc1cccc2c(C(=O)N3CCc4c(nn(C)c4-c4cc(F)c(F)c(F)c4)[C@@H]3C)ccnc12 [Example 550, [(7S)-2,7-Dimethyl-3-(3,4,5-trifluorophenyl)-5,7-dihydro-4H-pyrazolo[3,4-c]pyridin-6-yl]-(8-methoxy-4-quinolyl)methanone] | 0.0483 |

Same assay, conditions: 300 nM [Glycerol-1,3-3H]-oleyl glycerol, one hour incubation

| IC50 [µM] | SMILES |
| --- | --- |
| 0.00637 | C[C@H]1c2nn(C)c(-c3cc(F)cc(Cl)c3)c2CCN1C(=O)c1ccc2nccnc2c1 [Example 181, (S)-(3-(3-Chloro-5-fluorophenyl)-2,7-dimethyl-2,4,5,7-tetrahydro-6H-pyrazolo[3,4-c]pyridin-6-yl)(quinoxalin-6-yl)methanone] |
| 0.0235 | C[C@H]1c2nn(C)c(-c3cc(F)c(F)c(F)c3)c2CCN1C(=O)c1nccc2occc12 [Example 214, (S)-(2,7-Dimethyl-3-(3,4,5-trifluorophenyl)-2,4,5,7-tetrahydro-6H-pyrazolo[3,4-c]pyridin-6-yl)(furo[3,2-c]pyridin-4-yl)methanone] |
| > 10 | C[C@@H]1c2nn(C)c(-c3cc(F)cc(Cl)c3)c2CCN1C(=O)c1ccc2nccnc2c1 [Example 182, (R)-(3-(3-Chloro-5-fluorophenyl)-2,7-dimethyl-2,4,5,7-tetrahydro-6H-pyrazolo[3,4-c]pyridin-6-yl)(quinoxalin-6-yl)methanone] |
| 0.0478 | Cn1nc2c(c1-c1ccccc1)CCN(C(=O)c1cccc3ccsc13)C2 [Example 37, Benzo[b]thiophen-7-yl(2-methyl-3-phenyl-2,4,5,7-tetrahydro-6H-pyrazolo[3,4-c]pyridin-6-yl)methanone] |
| 0.683 | Cn1nc2c(c1-c1ccccc1)CCN(C(=O)c1cnn(C)c1C1CC1)C2 [Example 22, (5-Cyclopropyl-1-methyl-1H-pyrazol-4-yl)(2-methyl-3-phenyl-2,4,5,7-tetrahydro-6H-pyrazolo[3,4-c]pyridin-6-yl)methanone] |
| 4.6 | Cn1nc2c(c1C1CC1)CCN(C(=O)c1cccc(Cl)c1Cl)C2 [Example 2, (3-Cyclopropyl-2-methyl-2,4,5,7-tetrahydro-6H-pyrazolo[3,4-c]pyridin-6-yl)(2,3-dichlorophenyl)methanone] |
| 0.359 | Cn1nc2c(c1-c1ccccc1)CCN(C(=O)c1ccc3cc[nH]c3c1)C2 [Example 46, (1H-Indol-6-yl)(2-methyl-3-phenyl-2,4,5,7-tetrahydro-6H-pyrazolo[3,4-c]pyridin-6-yl)methanone] |
| 0.00262 | C[C@H]1c2nn(C)c(-c3cc(Cl)cc(Cl)c3)c2CCN1C(=O)c1ccc2ncccc2c1 [Example 174, (S)-(3-(3,5-Dichlorophenyl)-2,7-dimethyl-2,4,5,7-tetrahydro-6H-pyrazolo[3,4-c]pyridin-6-yl)(quinolin-6-yl)methanone] |

Further lines, the compound ahead of its results:

| SMILES | IC50 [µM] |
| --- | --- |
| Cn1nc2c(c1-c1ccccc1)CCN(C(=O)c1cccc(OC(F)(F)F)n1)C2 [Example 25, (2-Methyl-3-phenyl-2,4,5,7-tetrahydro-6H-pyrazolo[3,4-c]pyridin-6-yl)(6-(trifluoromethoxy)pyridin-2-yl)methanone] | 2.43 |
| Cn1nc2c(c1-c1ccccc1)CCN(C(=O)c1cccc3c1OC(F)(F)O3)C2 [Example 30, (2,2-Difluorobenzo[d][1,3]dioxol-4-yl)(2-methyl-3-phenyl-2,4,5,7-tetrahydro-6H-pyrazolo[3,4-c]pyridin-6-yl)methanone] | 1.04 |
| C[C@H]1c2nn(C)c(-c3cc(F)c(F)c(F)c3)c2CCN1C(=O)c1ccc(OC(F)F)cc1 [Example 264, [4-(Difluoromethoxy)phenyl]-[(7S)-2,7-dimethyl-3-(3,4,5-trifluorophenyl)-5,7-dihydro-4H-pyrazolo[3,4-c]pyridin-6-yl]methanone] | 0.213 |
| Cn1nc2c(c1-c1ccccc1)CCN(C(=O)c1cccc3ncsc13)C2 [Example 59, Benzo[d]thiazol-7-yl(2-methyl-3-phenyl-2,4,5,7-tetrahydro-6H-pyrazolo[3,4-c]pyridin-6-yl)methanone] | 0.403 |
| C[C@H]1c2nn(C)c(-c3cc(F)c(F)c(F)c3)c2CCN1C(=O)c1c(F)cccc1-n1nccn1 [Example 288, [(7S)-2,7-Dimethyl-3-(3,4,5-trifluorophenyl)-5,7-dihydro-4H-pyrazolo[3,4-c]pyridin-6-yl]-[2-fluoro-6-(triazol-2-yl)phenyl]methanone] | 0.0598 |
| CC1c2nn(C)c(-c3ccccc3)c2CCN1C(=O)c1ccc2ncccc2c1 (racemic) [Example 110, (2,7-Dimethyl-3-phenyl-2,4,5,7-tetrahydro-6H-pyrazolo[3,4-c]pyridin-6-yl)(quinolin-6-yl)methanone] | 0.0199 |
| C[C@H]1c2nn(C)c(-c3cc(F)c(F)c(F)c3)c2CCN1C(=O)c1cnn(C(C)(C)C)c1C(F)(F)F [Example 199, (S)-(1-(tert-Butyl)-5-(trifluoromethyl)-1H-pyrazol-4-yl)(2,7-dimethyl-3-(3,4,5-trifluorophenyl)-2,4,5,7-tetrahydro-6H-pyrazolo[3,4-c]pyridin-6-yl)methanone] | 0.172 |
| C[C@H]1c2nn(C)c(-c3cc(F)c(F)c(F)c3)c2CCN1C(=O)c1nccc2[nH]ccc12 [Example 216, (S)-(2,7-Dimethyl-3-(3,4,5-trifluorophenyl)-2,4,5,7-tetrahydro-6H-pyrazolo[3,4-c]pyridin-6-yl)(1H-pyrrolo[3,2-c]pyridin-4-yl)methanone] | 0.0262 |
| Cn1nc2c(c1-c1ccccc1)CCN(C(=O)c1ncn3ccccc13)C2 [Example 76, Imidazo[1,5-a]pyridin-1-yl(2-methyl-3-phenyl-2,4,5,7-tetrahydro-6H-pyrazolo[3,4-c]pyridin-6-yl)methanone] | 6.11 |
| C[C@H]1c2nn(C)c(-c3cc(F)c(F)c(F)c3)c2CCN1C(=O)c1ccn2nccc2c1 [Example 228, (S)-(2,7-Dimethyl-3-(3,4,5-trifluorophenyl)-2,4,5,7-tetrahydro-6H-pyrazolo[3,4-c]pyridin-6-yl)(pyrazolo[1,5-a]pyridin-5-yl)methanone] | 0.0481 |
| C[C@H]1c2nn(C)c(-c3cc(F)cc(F)c3)c2CCN1C(=O)c1cccc(OCCF)c1 [Example 139, (S)-(3-(3,5-Difluorophenyl)-2,7-dimethyl-2,4,5,7-tetrahydro-6H-pyrazolo[3,4-c]pyridin-6-yl)(3-(2-fluoroethoxy)phenyl)methanone] | 0.0098 |
